Source: patent US7862751B2, “Formulation of fine particles using liquefield or dense gases” (MAP Pharmaceuticals, Inc., priority 2002, dated 2011)

Columns and labels:
[1] = Particle size by SEM; format: physicochemical; conditions: processed with CO2 at 190 bar, 50° C. and 25° C.
[2] = cited from earlier work
[3] = coadministration of cyclosporine; J Clin Oncol 2001; cited from earlier work

Row | particle size [1] | SMILES | solubility in water [2] | bioavailability [3]
1 | approximately 5 microns | Cc1ccc(C)c(OCCCC(C)(C)C(=O)O)c1 [gemfibrozil, 5-(2,5-dimethylphenoxy)-2,2-dimethylpentanoic acid] | very poorly soluble | 
2 |  | CC(=O)O[C@@]12CO[C@@H]1C[C@H](O)[C@@]1(C)C(=O)[C@H](O)C3=C(C)[C@@H](OC(=O)[C@H](O)[C@@H](NC(=O)OC(C)(C)C)c4ccccc4)C[C@@](O)([C@@H](OC(=O)c4ccccc4)[C@H]21)C3(C)C [docetaxel] |  | strongly enhanced
